The record followed here is patent publication US11332485B2, “Penicillin-binding protein inhibitors” (priority 2017, dated 2022).

Assay [1] concerns hyper-permeable E. coli 901C. The assay is described as follows: Broth microdilution MIC assay. Type of assay: cell-based. The following applies: Escherichia coli, read-out: E. coli 901C MIC. The gist of the method:
(§1)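 Visual no-growth endpoint defines the MIC. Inoculum of 5×10^5 CFU/mL in divalent-cation-supplemented Mueller-Hinton broth was exposed to 2-fold dilution series of compound, then incubated 16-20 hours at 37° C per CLSI.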
In general terms: In broth dilution the organism is exposed to a series of concentrations in liquid medium.

The test system of the next assay is S. aureus ATCC 29213. Briefly: Broth microdilution MIC assay. Type of assay: cell-based. To be noted: Staphylococcus aureus. Put shortly:
as §1

Assay [2] addresses T1, PBP3 from Escherichia coli (Escherichia coli, UniProt P0AD68).
T1 construct: made in house
The assay is described as follows: Fluorescence polarization competition binding assay with Bocillin-FL. An excerpt:
To determine the ability of boronic acid-based test PBP inhibitors to bind Penicillin Binding Proteins (PBPs), Bocillin-FL (fluorescently-labeled penicillin V; ThermoFisher Scientific) was used in a fluorescence polarization (FP) competition binding assay to assess boronic acid PBP inhibitor binding to PBP3 from Escherichia coli. PBP3 from Escherichia coli was cloned and purified as described previously (King, D. T, et al., ACS Infectious Diseases 2015, 1, 175-184). To establish assay conditions for competition binding, an enzyme titration/saturation binding experiment was performed. Bocillin-FL was prepared at […] in a buffer comprised of 50 mM Hepes (pH 8.0), 300 mM NaCl and 5% (v/v) glycerol. Saturation binding was performed by mixing […] of PBP3 ranging in concentrations from […] with 40 μl of the 0.2 μM Bocillin-FL solution, in individual wells of a black 384-well microplate. FP was measured immediately upon addition of PBP3 (Ex, Em), using a Cytation3 (BioTek) microplate reader and measured continuously for 60 minutes. […] The competition binding assay was validated using the beta-lactam ampicillin, with Bocillin-FL at a final concentration of 0.1 μM, PBP3 at a final concentration of 1.5 μM and concentrations of ampicillin from 0-1000 μM. PBP3 was incubated with ampicillin at different concentrations in a black 384-well microplate (Corning) for 30 minutes, then Bocillin-FL added and the FP immediately measured for 60 minutes. […] Binding assays for boronic acid PBP inhibitors were performed in an identical fashion. Representative results are shown in Table 3, where A represents a potency of >500 μM, B represents a potency between 30 μM and 500 μM inclusive, and C represents a potency of <30 μM. NT=Not Tested.

In a further assay the test system is E. coli DH5α/pLBII. The assay is described as follows: Broth microdilution MIC assay, empty vector control strain. Type of assay: cell-based. The following applies: Escherichia coli, read-out: E. coli DH5α/pLBII Microbiological Activity (MIC). Put shortly:
(§2)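 CLSI broth microdilution in cation-supplemented Mueller-Hinton broth, 2-fold compound dilutions, 5×10^5 CFU/mL inoculum, 16-20 h at 37° C, MIC read visually as lowest concentration without growth. E. coli DH5α carries CTX-M15 on pLBII under Lac promoter, or empty pLBII as control.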

The subject of assay [3] is E. coli DH5α/pLBII-CTX-M15. Briefly: Broth microdilution MIC assay, engineered strain producing CTX-M15. The following applies: Escherichia coli, read-out: E. coli DH5α/pLBII-CTX-M15 Microbiological Activity (MIC). Format: cell-based, Escherichia coli. The gist of the method: as §2
The mark [4] stands for this setting: ATCC29213, broth microdilution, 16-20 hours at 37° C., read-out: S. aureus 29213 MIC.

The structures appear in SMILES notation. Like-named read-outs stand apart in the source and are kept apart here. Where only a bound is given, the exact number is not on record here.

T1 sequence (P0AD68 1-577): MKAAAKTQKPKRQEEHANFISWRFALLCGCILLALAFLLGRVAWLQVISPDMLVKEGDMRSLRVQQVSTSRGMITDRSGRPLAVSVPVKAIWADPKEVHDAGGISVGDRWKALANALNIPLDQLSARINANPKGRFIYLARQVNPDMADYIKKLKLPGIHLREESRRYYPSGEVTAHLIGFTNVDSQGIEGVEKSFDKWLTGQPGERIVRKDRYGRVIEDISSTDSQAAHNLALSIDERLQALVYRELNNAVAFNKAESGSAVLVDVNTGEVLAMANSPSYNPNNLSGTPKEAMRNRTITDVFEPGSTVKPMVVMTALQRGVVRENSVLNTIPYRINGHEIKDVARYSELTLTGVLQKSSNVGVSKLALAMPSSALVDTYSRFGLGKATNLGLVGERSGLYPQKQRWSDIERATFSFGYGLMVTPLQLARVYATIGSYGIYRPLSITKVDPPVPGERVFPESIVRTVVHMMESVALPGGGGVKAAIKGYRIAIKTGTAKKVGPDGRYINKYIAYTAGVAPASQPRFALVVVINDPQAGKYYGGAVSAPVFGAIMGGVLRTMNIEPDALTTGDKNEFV

With `CCN1CCN(C(=O)N[C@@H](C(=O)N[C@H]2Cc3cccc(C(=O)O)c3OB2O)c2ccccc2)C(=O)C1=O` [Example 11, (R)-3-((R)-2-(4-ethyl-2,3-dioxopiperazine-1-carboxamido)-2-phenylacetamido)-2-hydroxy-3,4-dihydro-2H-benzo[e][1,2]oxaborinine-8-carboxylic acid], the MIC is under 64 µg/mL in assay [1], 64 to 128 µg/mL in the assay on S. aureus ATCC 29213 (setting [4]), 32 to 64 µg/mL in the assay on E. coli DH5α/pLBII and 32 to 64 µg/mL in assay [3]. Moreover, the concentration for a half-maximal effect (EC50) (in general, the concentration giving half of the maximal effect) in assay [2] was under 30 µM.

In the case of `CCN1CCN(C(=O)NC(C(=O)N[C@H]2Cc3cccc(C(=O)O)c3OB2O)c2csc(NCCN)n2)C(=O)C1=O` (stereo partly drawn) [Example 63, (3R)-3-(2-(2-((2-aminoethyl)amino)thiazol-4-yl)-2-(4-ethyl-2,3-dioxopiperazine-1-carboxamido)acetamido)-2-hydroxy-3,4-dihydro-2H-benzo[e][1,2]oxaborinine-8-carboxylic acid], the MIC in assay [1] was under 64 µg/mL; in the assay on S. aureus ATCC 29213 (setting [4]), 64 to 128 µg/mL. For the same compound, the EC50 in assay [2] was in the range of 30 to 500 µM.

For the compound `NCCN1CCN(C(=O)NC(C(=O)N[C@H]2Cc3cccc(C(=O)O)c3OB2O)c2csc(N)n2)C(=O)C1=O` (stereo partly drawn) [Example 58, (3R)-3-(2-(4-(2-aminoethyl)-2,3-dioxopiperazine-1-carboxamido)-2-(2-aminothiazol-4-yl)acetamido)-2-hydroxy-3,4-dihydro-2H-benzo[e][1,2]oxaborinine-8-carboxylic acid], the MIC in assay [1] was under 64 µg/mL; in the assay with S. aureus ATCC 29213 (setting [4]), over 128 µg/mL; in the assay with E. coli DH5α/pLBII, 32 to 64 µg/mL; in assay [3], 32 to 64 µg/mL. This compound also came in with an EC50 in assay [2] of 30 to 500 µM.

Consider `COCCN1CCN(C(=O)NC(C(=O)N[C@H]2Cc3cccc(C(=O)O)c3OB2O)c2csc(N)n2)C(=O)C1=O` (stereo partly drawn) [Example 61, (3R)-3-(2-(2-aminothiazol-4-yl)-2-(4-(2-methoxyethyl)-2,3-dioxopiperazine-1-carboxamido)acetamido)-2-hydroxy-3,4-dihydro-2H-benzo[e][1,2]oxaborinine-8-carboxylic acid], for which the MIC in assay [1] is under 64 µg/mL; in the assay on S. aureus ATCC 29213 (setting [4]), 64 to 128 µg/mL; with E. coli DH5α/pLBII, 32 to 64 µg/mL; in assay [3] it was 32 to 64 µg/mL. This compound displayed an EC50 in assay [2] of under 30 µM.

In the case of `CCCCCCN1CCN(C(=O)NC(C(=O)N[C@H]2Cc3cccc(C(=O)O)c3OB2O)c2csc(N)n2)C(=O)C1=O` (stereo partly drawn) [Example 93, (3R)-3-(2-(2-aminothiazol-4-yl)-2-(4-hexyl-2,3-dioxopiperazine-1-carboxamido)acetamido)-2-hydroxy-3,4-dihydro-2H-benzo[e][1,2]oxaborinine-8-carboxylic acid], the figures for the MIC (in assay [1]; with S. aureus ATCC 29213 (setting [4]); in assay [3]) were under 64 µg/mL, 64 to 128 µg/mL and 128 to 256 µg/mL, respectively. This compound also displayed an EC50 in assay [2] of under 30 µM.

On to `CCN1CCN(C(=O)NCCN2CCN(C(=O)NC(C(=O)N[C@H]3Cc4cccc(C(=O)O)c4OB3O)c3csc(N)n3)C(=O)C2=O)C(=O)C1=O` (stereo partly drawn) [Example 92, (3R)-3-(2-(2-aminothiazol-4-yl)-2-(4-(2-(4-ethyl-2,3-dioxopiperazine-1-carboxamido)ethyl)-2,3-dioxopiperazine-1-carboxamido)acetamido)-2-hydroxy-3,4-dihydro-2H-benzo[e][1,2]oxaborinine-8-carboxylic acid], for which the MIC in assay [1] is under 64 µg/mL; with S. aureus ATCC 29213 (setting [4]), over 128 µg/mL; in assay [3] it was 128 to 256 µg/mL. In assay [2], this compound came in with an EC50 of 30 to 500 µM.

As to `CCCCN1CCN(C(=O)NC(C(=O)N[C@H]2Cc3cccc(C(=O)O)c3OB2O)c2csc(N)n2)C(=O)C1=O` (stereo partly drawn) [Example 53, (3R)-3-(2-(2-aminothiazol-4-yl)-2-(4-butyl-2,3-dioxopiperazine-1-carboxamido)acetamido)-2-hydroxy-3,4-dihydro-2H-benzo[e][1,2]oxaborinine-8-carboxylic acid], the MIC in assay [1] is under 64 µg/mL; in the assay on S. aureus ATCC 29213 (setting [4]), 64 to 128 µg/mL; with E. coli DH5α/pLBII it was 32 to 64 µg/mL; in assay [3] it was 32 to 64 µg/mL. In assay [2], this compound displayed an EC50 of under 30 µM.

Consider `CCN1CCN(C(=O)NC(C(=O)N[C@H]2Cc3cccc(C(=O)O)c3OB2O)c2csc(N)n2)CC1=O` (stereo partly drawn) [Example 62, (3R)-3-(2-(2-aminothiazol-4-yl)-2-(4-ethyl-3-oxopiperazine-1-carboxamido)acetamido)-2-hydroxy-3,4-dihydro-2H-benzo[e][1,2]oxaborinine-8-carboxylic acid], for which the MIC in assay [1] was under 64 µg/mL; in the assay on S. aureus ATCC 29213 (setting [4]) it was over 128 µg/mL; in the assay with E. coli DH5α/pLBII, 128 to 256 µg/mL; in assay [3], 128 to 256 µg/mL. In assay [2], this compound had an EC50 of 30 to 500 µM.

`Nc1nc(C(NC(=O)N2CCN(CCF)C(=O)C2=O)C(=O)N[C@H]2Cc3cccc(C(=O)O)c3OB2O)c(Cl)s1` (stereo partly drawn) [Example 57, (3R)-3-(2-(2-amino-5-chlorothiazol-4-yl)-2-(4-(2-fluoroethyl)-2,3-dioxopiperazine-1-carboxamido)acetamido)-2-hydroxy-3,4-dihydro-2H-benzo[e][1,2]oxaborinine-8-carboxylic acid]: the MIC was under 64 µg/mL in assay [1], over 128 µg/mL with S. aureus ATCC 29213 (setting [4]), 8 to 16 µg/mL in the assay on E. coli DH5α/pLBII and 8 to 16 µg/mL in assay [3]. The EC50 in assay [2] is 30 to 500 µM.

In the case of `CC(C)CN1CCN(C(=O)NC(C(=O)N[C@H]2Cc3cccc(C(=O)O)c3OB2O)c2csc(N)n2)C(=O)C1=O` (stereo partly drawn) [Example 66, (3R)-3-(2-(2-aminothiazol-4-yl)-2-(4-isobutyl-2,3-dioxopiperazine-1-carboxamido)acetamido)-2-hydroxy-3,4-dihydro-2H-benzo[e][1,2]oxaborinine-8-carboxylic acid], the MIC was under 64 µg/mL in assay [1], 64 to 128 µg/mL in the assay with S. aureus ATCC 29213 (setting [4]), 32 to 64 µg/mL in the assay on E. coli DH5α/pLBII and 32 to 64 µg/mL in assay [3]. This compound displayed a concentration giving a half-maximal response (EC50) in assay [2] of 30 to 500 µM.

`CCCCCCCN1CCN(C(=O)NC(C(=O)N[C@H]2Cc3cccc(C(=O)O)c3OB2O)c2csc(N)n2)C(=O)C1=O` (stereo partly drawn) [Example 94, (3R)-3-(2-(2-aminothiazol-4-yl)-2-(4-heptyl-2,3-dioxopiperazine-1-carboxamido)acetamido)-2-hydroxy-3,4-dihydro-2H-benzo[e][1,2]oxaborinine-8-carboxylic acid]: the MIC in assay [1] is under 64 µg/mL; in the assay with S. aureus ATCC 29213 (setting [4]), 64 to 128 µg/mL; in assay [3], 128 to 256 µg/mL. This compound also yielded an EC50 in assay [2] of under 30 µM.

Consider `CCN1CCN(C(=O)N[C@H](CCC(N)=O)C(=O)N[C@H]2Cc3cccc(C(=O)O)c3OB2O)C(=O)C1=O` [Example 50, (R)-3-((R)-5-amino-2-(4-ethyl-2,3-dioxopiperazine-1-carboxamido)-5-oxopentanamide)-2-hydroxy-3,4-dihydro-2H-benzo[e][1,2]oxaborinine-8-carboxylic acid], for which the MIC in assay [1] is under 64 µg/mL; in the assay with S. aureus ATCC 29213 (setting [4]), over 128 µg/mL; in the assay on E. coli DH5α/pLBII it was 32 to 64 µg/mL; in assay [3], 32 to 64 µg/mL. Further, the EC50 in assay [2] was over 500 µM.

Turning to `CCN1CCN(C(=O)N[C@@H](C(=O)N[C@H]2Cc3cccc(C(=O)O)c3OB2O)C(C)(C)O)C(=O)C1=O` [Example 86, (R)-3-((R)-2-(4-ethyl-2,3-dioxopiperazine-1-carboxamido)-3-hydroxy-3-methylbutanamido)-2-hydroxy-3,4-dihydro-2H-benzo[e][1,2]oxaborinine-8-carboxylic acid], the MIC in assay [1] is under 64 µg/mL; in the assay with S. aureus ATCC 29213 (setting [4]), over 128 µg/mL; in assay [3], 32 to 64 µg/mL. The EC50 in assay [2] is 30 to 500 µM.

For `Nc1nc(C(NC(=O)N2CCCN(O)S2(=O)=O)C(=O)N[C@H]2Cc3cccc(C(=O)O)c3OB2O)cs1` (stereo partly drawn) [Example 77, (3R)-3-(2-(2-aminothiazol-4-yl)-2-(6-hydroxy-1,1-dioxido-1,2,6-thiadiazinane-2-carboxamido)acetamido)-2-hydroxy-3,4-dihydro-2H-benzo[e][1,2]oxaborinine-8-carboxylic acid], the MIC is under 64 µg/mL in assay [1]; over 128 µg/mL in the assay on S. aureus ATCC 29213 (ATCC29213, read-out: S. aureus 29213 MIC); 32 to 64 µg/mL in the assay with E. coli DH5α/pLBII; 32 to 64 µg/mL in assay [3].
